Assay results published in patent publication US20260200943A1, “COMPOUNDS FOR TREATING CANCER” (Genesis Therapeutics, Inc., priority 2022, published 2026).

How the values were obtained:
Assay type in all cases: biochemical
CDK1/CyclinB1 = biological target: T1, CDK1/CyclinB1 (Homo sapiens, UniProt P06493); assay: CDK1/CyclinB1 ChEF Assay (AQT, Table C); details: 10xKm, read-out: CDK1/CCNB1 AQT AQT10xKm Ki: Average Ki
T1 construct: Wild-type, full length CDK1 in complex with wildtype, full length CyclinB1: Carna Cat #04-102; purchased Carna 04-102
Protocol: (§1) 16 nL of 1000× compound in 100% DMSO is added to a 384-well low volume, black assay plate. 12 μL of 1.3×CDK1/CyclinB1 (Wild-type, full length CDK1 in complex with wildtype, full length CyclinB1: Carna Cat #04-102) diluted in assay buffer (54 mM Hepes, 0.012% Brij-35, 10 mM MgCl2, 0.55 mM EGTA, 1% Glycerol, 0.02% BSA, and 1.2 mM DTT) is added to the plates on top of the compound and pre-incubated for 30 minutes at room temperature. Following the incubation, 4 uL of 4×Sox-chromophore (CSox) labeled peptide substrate (AQT0297, AssayQuant) & ATP diluted in assay buffer is added to the plate to initiate the reaction. The assay is incubated at room temperature for 120 min after initiation. The CSox peptide substrate is phosphorylated by CDK1/B1 upon ATP hydrolysis.
(§2) The fluorescent intensity measurement of the assay plate is read on a microplate reader once the assay is initiated and again at the completion of the assay. Phosphorylation of the CSox-based peptide substrate sensor results in an immediate increase in fluorescence. These raw fluorescence intensity values are normalized to calculate percent inhibition, which are fit to a four-parameter logistic curve and IC50 values are calculated. IC50 values are converted to Ki using substrate, KM^app values, and the Cheng-Prusoff equation.

CDK2/CyclinA2 [1] = biological target: T2, CDK2/CyclinA2 (Homo sapiens, UniProt P24941); assay: CDK2/CyclinA2 ChEF Assay (AQT, Table C); details: 10xKm; for Ki: AQT ChEF, read-out: CDK2/CCNA2 AQT10xKm Ki: Average Ki; for CDK2/CCNA2 AQT10xKm Ki: CDK2/A2 Selectivity over CDK1/B1 / CDK2/CCNA2 AQT10xKm Ki: CDK2/A2 selectivity over CDK4/D1 / CDK2/CCNA2 AQT10xKm Ki: CDK2/A2 selectivity over CDK6/D3 / CDK2/CCNA2 AQT10xKm Ki: CDK2/A2 Selectivity over CDK9: AQT
T2 construct: Wild-type, full length CDK2 in complex with wildtype, full length CyclinA2: Carna Cat #04-103; purchased Carna 04-103
Protocol: as §1, with “1.3×CDK2/CyclinA2” for “1.3×CDK1/CyclinB1”, “CDK2” for “CDK1”, “CyclinA2:” for “CyclinB1:”, “#04-103” for “#04-102)”, “90” for “120”, “CDK2/A2” for “CDK1/B1”
as §2

CDK9/CyclinT1 = CDK9/CyclinT1 (Homo sapiens, UniProt P50750); assay: CDK9/CyclinT1 ChEF Assay (Table A); set-up: Wild-type, full length CDK9 in complex with wildtype, full length CyclinT1: Invitrogen Cat #PV4131; purchased Invitrogen PV4131; details: 10xKm, read-out: CDK9/CCNT1 ChEF 10xKm Ki: Average Ki
Protocol: 500 nL of 50× compound in 100% DMSO is added to a 384-well low volume, white assay plate. 19.5 μL of 1.3×CDK9/CyclinT1 (Wild-type, full length CDK9 in complex with wildtype, full length CyclinT1: Invitrogen Cat #PV4131) diluted in assay buffer (50 mM Hepes, 0.01% Brij-35, 10 mM MgCl2, 0.5 mM EGTA, 1% Glycerol, and 1.2 mM DTT) is added to the plates on top of the compound and pre-incubated for 30 minutes at room temperature. Following the incubation, 5 μL of 5×Sox-chromophore (CSox) labeled peptide substrate (AQT0449, AssayQuant) & ATP diluted in assay buffer is added to the plate to initiate the reaction. The assay is incubated at room temperature for 120 min after initiation. The CSox peptide substrate is phosphorylated by CDK9/T1 upon ATP hydrolysis.
as §2, with “assay plate for all assays described above is read” for “assay plate is read”

CDK2/CyclinA2 [2] = biological target: T2, CDK2/CyclinA2; assay: CDK2/Cyclin A2 Mobility Shift Assay (Caliper, Table B); details: for Ki: Caliper mobility shift, 10xKm, read-out: CDK2/CCNA2 Caliper 10xKm Ki: Average Ki
Protocol: 10 nL of 2000× compound in 100% DMSO is added to a 384-well polypropylene assay plate. 15 μL of 1.3×CDK2/A2 and 1.3× fluorescent substrate (Wild-type, full length CDK2 in complex with wildtype, full length CyclinA2: Carna Cat #04-103 and FL-Peptide 18: PerkinElmer Cat #760362) diluted in kinase buffer (50 mM Hepes, 0.01% Brij-35, 10 mM MgCl2, 1 mM EGTA, 0.05% BSA, and 2 mM DTT) is added to the plates on top of the compound, mixed, and pre-incubated for 30 minutes at room temperature. The fluorescently labeled peptide substrate is phosphorylated by CDK2/A2 upon ATP hydrolysis. Following the incubation, 5 μL of 4×ATP diluted in kinase buffer is added to the plate to initiate the reaction. Following the 30-minute incubation, the reaction is stopped by adding 75 μL of stopping buffer containing 0.5 M EDTA.
The assay plate is then read on a Lab Chip EZ Reader which separates the fluorescently labeled substrate and product peptides through a mobility difference. The phosphorylation of the substrate imparts a negative charge, which allows differences in separation as both are pulled through the microfluidic chip. The ratio of substrate and product values are used to generate percent conversion. These raw percent conversion values are normalized to calculate percent inhibition, which are fit to a four-parameter logistic curve and IC50 values are calculated. IC50 values are converted to Ki through using substrate and Km^app values, and the Cheng-Prusoff equation.

T1 sequence (P06493 whole entry): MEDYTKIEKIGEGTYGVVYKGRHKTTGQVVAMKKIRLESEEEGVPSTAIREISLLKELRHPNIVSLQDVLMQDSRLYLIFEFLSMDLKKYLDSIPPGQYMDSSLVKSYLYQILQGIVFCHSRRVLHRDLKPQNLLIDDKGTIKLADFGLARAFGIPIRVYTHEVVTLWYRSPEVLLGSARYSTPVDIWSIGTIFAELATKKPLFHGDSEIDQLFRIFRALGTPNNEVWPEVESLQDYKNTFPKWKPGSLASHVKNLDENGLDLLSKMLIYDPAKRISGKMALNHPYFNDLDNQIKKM
T1 sequence (P14635 whole entry partner): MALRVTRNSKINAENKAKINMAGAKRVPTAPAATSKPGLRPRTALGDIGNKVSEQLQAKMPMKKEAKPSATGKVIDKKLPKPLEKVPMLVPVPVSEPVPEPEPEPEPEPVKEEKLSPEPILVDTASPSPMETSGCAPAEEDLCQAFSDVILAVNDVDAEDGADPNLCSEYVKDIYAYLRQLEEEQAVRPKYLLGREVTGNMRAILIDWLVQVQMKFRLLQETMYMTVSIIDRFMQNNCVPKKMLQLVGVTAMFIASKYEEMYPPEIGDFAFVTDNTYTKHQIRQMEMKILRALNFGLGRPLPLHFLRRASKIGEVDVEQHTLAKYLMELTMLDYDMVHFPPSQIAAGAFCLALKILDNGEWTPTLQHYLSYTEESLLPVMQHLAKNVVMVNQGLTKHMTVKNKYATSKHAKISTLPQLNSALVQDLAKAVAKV
CDK9/CyclinT1, sequence (P50750 whole entry): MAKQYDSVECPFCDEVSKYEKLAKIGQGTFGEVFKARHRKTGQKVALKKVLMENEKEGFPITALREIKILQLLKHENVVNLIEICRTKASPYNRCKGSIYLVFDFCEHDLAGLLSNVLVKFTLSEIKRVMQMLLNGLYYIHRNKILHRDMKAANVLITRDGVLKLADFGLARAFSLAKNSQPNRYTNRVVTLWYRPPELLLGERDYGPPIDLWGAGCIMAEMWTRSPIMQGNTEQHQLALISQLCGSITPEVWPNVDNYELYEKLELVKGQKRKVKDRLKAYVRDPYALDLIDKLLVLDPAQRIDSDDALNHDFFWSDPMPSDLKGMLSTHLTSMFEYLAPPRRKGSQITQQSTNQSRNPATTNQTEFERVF
CDK9/CyclinT1, sequence (O60563 whole entry partner): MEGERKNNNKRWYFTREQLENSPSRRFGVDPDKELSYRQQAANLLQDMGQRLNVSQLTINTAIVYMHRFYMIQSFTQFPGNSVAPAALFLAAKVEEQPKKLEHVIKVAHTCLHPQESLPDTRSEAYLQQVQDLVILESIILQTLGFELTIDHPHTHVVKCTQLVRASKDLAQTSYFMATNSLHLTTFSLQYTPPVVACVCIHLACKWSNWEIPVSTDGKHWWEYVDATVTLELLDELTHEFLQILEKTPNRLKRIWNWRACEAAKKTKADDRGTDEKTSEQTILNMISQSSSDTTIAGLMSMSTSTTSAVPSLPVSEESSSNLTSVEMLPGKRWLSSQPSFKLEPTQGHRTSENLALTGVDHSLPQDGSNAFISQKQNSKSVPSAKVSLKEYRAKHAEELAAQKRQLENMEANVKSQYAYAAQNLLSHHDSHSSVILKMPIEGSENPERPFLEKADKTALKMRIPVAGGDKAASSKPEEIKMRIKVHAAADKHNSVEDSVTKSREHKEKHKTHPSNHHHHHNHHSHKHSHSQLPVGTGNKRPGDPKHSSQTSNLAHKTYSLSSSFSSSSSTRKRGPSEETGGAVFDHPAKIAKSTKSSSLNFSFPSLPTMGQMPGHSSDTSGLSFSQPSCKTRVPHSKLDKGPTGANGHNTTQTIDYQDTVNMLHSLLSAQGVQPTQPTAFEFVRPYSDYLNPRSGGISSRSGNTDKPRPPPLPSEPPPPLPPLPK

| Ki (CDK1/CyclinB1) [nM] | Ki (CDK2/CyclinA2 [1]) [nM] | CDK2/CCNA2 AQT10xKm Ki: CDK2/A2 Selectivity over CDK1/B1 (CDK2/CyclinA2 [1]) | CDK2/CCNA2 AQT10xKm Ki: CDK2/A2 selectivity over CDK4/D1 (CDK2/CyclinA2 [1]) | CDK2/CCNA2 AQT10xKm Ki: CDK2/A2 selectivity over CDK6/D3 (CDK2/CyclinA2 [1]) | CDK2/CCNA2 AQT10xKm Ki: CDK2/A2 Selectivity over CDK9 (CDK2/CyclinA2 [1]) | Ki (CDK9/CyclinT1) [nM] | Ki (CDK2/CyclinA2 [2]) [nM] | CDK2/CCNA2 Caliper 10xKm Ki: CDK2/A2 Selectivity over CDK1/B1 (CDK2/CyclinA2 [2]; Caliper) | CDK2/CCNA2 Caliper 10xKm Ki: CDK2/A2 Selectivity over CDK6/D3 (CDK2/CyclinA2 [2]; Caliper, selectivity over CDK6/D3) | CDK2/CCNA2 Caliper 10xKm Ki: CDK2/A2 Selectivity over CDK9 (CDK2/CyclinA2 [2]; Caliper) | SMILES |
| --- | --- | --- | --- | --- | --- | --- | --- | --- | --- | --- | --- |
| 1 to 25 | < 1 | A (A>10) | A (A>10) | A (A>10) | A (A>10) | – | – | – | – | – | NS(=O)(=O)c1ccc2cc1OCCCCCNC(=O)O[C@@H]1CC[C@@H](C1)c1cnc(nc1)N2 (stereo in doubt) [Compound 105, rel-(2S,5R)-7-oxo-6,14-dioxa-8,20,22,25-tetraazatetracyclo[19.2.2.1^{2,5}.1^{15,19}]heptacosa-1(23),15,17,19(26),21,24-hexaene-16-sulfonamide] |
| 1 to 25 | < 1 | A (A>10) | A (A>10) | A (A>10) | A (A>10) | ≥ 100 | < 1 | A (A>10) | A (A>10) | A (A>10) | O=C1NCCCCCCNS(=O)(=O)c2ccc(c(F)c2)Nc2cc([nH]n2)[C@H]2CC[C@H](C2)O1 [Compound 91, (1^1S,1^3R,Z)-4^2-fluoro-2^1H-15-oxa-5-thia-3,6,13-triaza-2(5,3)-pyrazola-4(1,4)-benzena-1(1,3)-cyclopentanacyclopentadecaphan-14-one 5,5-dioxide] |
| 1 to 25 | < 1 | A (A>10) | – | – | A (A>10) | ≥ 100 | 1 to 25 | A (A>10) | – | A (A>10) | O=C1NCCCCCCn2cc(cn2)S(=O)(=O)N2CCC(CC2)Nc2cc([nH]n2)[C@H]2CC[C@H](C2)O1 [Compound 97, (1^1S,1^3R,2^4Z,6^4E)-2^1H,6^1H-15-oxa-5-thia-3,13-diaza-4(4,1)-piperidina-2(5,3),6(4,1)-dipyrazola-1(1,3)-cyclopentanacyclopentadecaphan-14-one 5,5-dioxide] |
